Legend:
Type in all cases: cell-based
SP174 receptor [1] = molecular target: T1, SP174 receptor (Homo sapiens, UniProt Q9BPV8); experiment: SP174 receptor ligand identification, Ca2+ FLIPR in transfected mammalian cells (description section); parameters: expressed in transfected cells; settings: values given in the description; SP174 in pcDNA3.1 transfected into mammalian cells; read-out: EC50 for SP174 (agonists)
T1 sequence (Q9BPV8 1-333 isoform Q9BPV8-2): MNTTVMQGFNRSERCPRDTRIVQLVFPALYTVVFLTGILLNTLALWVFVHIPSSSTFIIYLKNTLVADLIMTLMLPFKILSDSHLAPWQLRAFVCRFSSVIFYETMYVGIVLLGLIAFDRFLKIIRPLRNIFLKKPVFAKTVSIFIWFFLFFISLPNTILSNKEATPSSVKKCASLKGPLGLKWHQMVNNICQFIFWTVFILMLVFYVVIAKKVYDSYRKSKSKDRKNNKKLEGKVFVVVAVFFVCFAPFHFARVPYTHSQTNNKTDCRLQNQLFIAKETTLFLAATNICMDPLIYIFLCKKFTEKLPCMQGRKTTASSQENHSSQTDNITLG
Experimental: (§1) In order to identify SP174 receptor ligands the SP174 open reading frame was subcloned into the pcDNA3.1 expression vector under the control of the CMV promoter and transfected into mammalian cells. After allowing two days for receptor expression, the transfected cells were seeded into 96 well plates, loaded with the Ca^2+ sensitive Fluo-3AM dye and challenged with various compounds. The peak increments in Ca^2+ evoked by the test compounds were measured using the Fluorometric Imaging Plate Reader (FLIPR) system.

SP174 receptor [2] = molecular target: T1, SP174 receptor; experiment: FLIPR assay, HEK293f cells transiently co-transfected with SP174 receptor and chimera G protein Gq/i3; parameters: expressed in transfected cells; host or cells: HEK293f cells (G-418-resistant HEK293), transient, lipofectamine; settings: Example 1; for EC50: HEK293f cells co-transfected with SP174 and Gq/i3; for specific activity on SP174 transfected cells (FLIPR screen of ligand collection): versus vector/Gq/i3 negative control
Source text: SP174 receptor cDNA was subcloned into the pcDNA3.1 expression vector (Invitrogen) and transiently co-transfected with chimera G protein Gq/i3 into HEK293f cells using lipofectamine (Gibco-BRL). HEK293f cells are the HEK293 cells which are resistant to G-418. Chimera G protein Gq/i3 was constructed by replacing the C-terminus five amino acid residues of human Gqa with the five amino acid residue of human Gi3a (Conklin et al., Nature, 363, p274-276). pcDNA 3.1 vector DNA was also co-transfected with chimera G protein Gq/i3 as a negative control. The transfected cells were seeded into 96 well plates and incubated overnight at 37° C. in a tissue culture incubator. The growth medium was aspirated and replaced with […] of loading medium (DMEM containing 1% FBS, […]/10% pluronic acid and 2.5 mM Probenecid) and incubated for 1 hour at 37° C. The cells were subsequently washed 3 times with Hank's BSS buffer containing 20 mM HEPES, 2.5 mM Probenecid, and 0.1% BSA using the gentle setting in a Denley cell washer (Denley Instruments). The washed cells were placed in a Fluorometric Imaging Plate Reader (FLIPR) and changes in cellular fluorescence recorded after the addition of various dilutions of tissue extract fractions.
EC50 values for ADP, ADPβS, 2-MeS-ADP, 2-MeS-ATP, 2-Cl-ATP and IDP were […], respectively, and the order of potency was 2-MeS-ATP=2-MeS-ADP>ADP=ADPβS>IDP.
The SP174 receptor assay was similar as Example 1 a. The SP174 receptor cDNA was subcloned into the pcDNA3.1 expression vector (Invitrogen) and transiently co-transfected with Gq/i3 into HEK293f cells using lipofectamine (Gibco-BRL). pcDNA 3.1 vector DNA was also co-transfected with Gq/i3 as a negative control. A variety of nucleotides, RBI small moleculars, and in-house peptide collection were screened. Twelve compounds were identified to be the agonists of the SP174 receptor. Their fluorecence change with different amount of the compounds were detected, the data were processed using Prism software to obtain their EC50 value. Other agonists can be identified using similar approaches. To identify antagonists of the SP174 receptor, two-addition approach was adapted. First, the compounds to be screened were added to the SP174 receptor transfected cells, after 5 minutes 100 nM of ADP were added as second addition and the fluorescence changes were recorded. In this assay antagonists inhibit the fluorecence signal of ADP.

SP174 receptor [3] = molecular target: T1, SP174 receptor; experiment: cAMP assay (inhibition of adenylyl cyclase) in SP174 receptor cells; parameters: expressed in transfected cells
Experimental: as §1, with “system. The endogenous ligand of the SP174 receptor was purified from rat spinal cords using a series of chromatography steps and its structure was identified as being ADP by Mass spectroscopy. […] In addition to ADP, other agonists were also identified for SP174.” for “system.”
The SP174 receptor cDNA was stably transfected into HEK293f cells according standard procedures. The SP174 receptor stable cell line and wild type cell grown on 12-well plates were incubated for 2 hr with 200 μl of medium plus 5 μCi of [3H]adenine/ml. Then 50 μl of Hepes (250 mM, pH 7.5, 50 μM Forskolin, 200 μM IBMX) with the compound to be screened is added to the cells and incubated for 10 minutes at 37° C. Incubations were terminated by addition of 0.8 ml of 5% trichloroacetic acid. [^3H]cAMP was purified using Dowex and alumina chromatography as previously described (Harden et al., Mol. Pharmacol. 21:570-580, 1982).

Compound	EC50 (SP174 receptor [1])	EC50 (SP174 receptor [2])	specific activity on SP174 transfected cells (FLIPR screen of ligand collection) (SP174 receptor [2])	mode of activation of the SP174 receptor (SP174 receptor [3])
Nc1ncnc2c1ncn2[C@@H]1O[C@H](COP(=O)(O)OP(O)(O)=S)[C@@H](O)[C@H]1O [ADPβS]	8 nM	43 nM	specifically active	–
Nc1ncnc2c1ncn2[C@@H]1O[C@H](COP(=O)(O)OP(=O)(O)OP(O)(O)=S)[C@@H](O)[C@H]1O [ATPγS]	8 nM	–	–	–
O=c1[nH]cnc2c1ncn2[C@@H]1O[C@H](COP(=O)(O)OP(=O)(O)O)[C@@H](O)[C@H]1O [IDP]	200 nM	196 nM	–	–
Nc1ncnc2c1ncn2[C@@H]1O[C@H](COP(=O)(O)OP(=O)(O)OP(=O)(O)OC[C@H]2O[C@@H](n3cnc4c(N)ncnc43)[C@H](O)[C@@H]2O)[C@@H](O)[C@H]1O [AP3A]	8 nM	–	specifically active	–
Nc1ncnc2c1ncn2[C@@H]1O[C@H](COP(=O)(O)OP(=O)(O)OP(=O)(O)O)[C@@H](O)[C@H]1O [ATP]	0.32 nM	–	–	–

Other lines, results leading:

EC50 (SP174 receptor [1])	EC50 (SP174 receptor [2])	specific activity on SP174 transfected cells (FLIPR screen of ligand collection) (SP174 receptor [2])	mode of activation of the SP174 receptor (SP174 receptor [3])	Compound
8 nM	97 nM	–	–	CSc1nc(N)c2ncn([C@@H]3O[C@H](COP(=O)(O)OP(=O)(O)OP(=O)(O)O)[C@@H](O)[C@H]3O)c2n1 [2-MeS-ATP]
0.32 nM	21 nM	specifically active	–	CSc1nc(N)c2ncn([C@@H]3O[C@H](COP(=O)(O)OP(=O)(O)O)[C@@H](O)[C@H]3O)c2n1 [2-MeS-ADP]
8 nM	94 nM	–	–	Nc1nc(Cl)nc2c1ncn2[C@@H]1O[C@H](COP(=O)(O)OP(=O)(O)OP(=O)(O)O)[C@@H](O)[C@H]1O [2-Cl-ATP]
1.6 nM	80 nM	activate specifically	inhibition of adenylyl cyclase	Nc1ncnc2c1ncn2[C@@H]1O[C@H](COP(=O)(O)OP(=O)(O)O)[C@@H](O)[C@H]1O [ADP]
–	–	specifically active	–	Nc1nc(Cl)nc2c1ncn2[C@@H]1O[C@H](COP(=O)(O)OP(=O)(O)O)[C@@H](O)[C@H]1O [2-Cl-ADP]

From US20030059857A1, “G-protein coupled receptor and methods” (priority 2001, published 2003)
